Experiment [1] has as its system non-obese diabetic (NOD) female mice. Briefly: NOD mice orally challenged with gliadin. Type of experiment: in vivo, mouse. From the text: In the second model of gluten sensitivity, the Applicant resorted to non-obese diabetic (NOD) female mice, which spontaneously develop autoimmune type-1 diabetes (Maurano, F., et al. 2005).
BALB/c mice (background BALB/cAnNCrl) were purchased from Charles River (Varese, Italy). Three generation gluten-free diet (Mucedola srl, Milan), male and female, were challenged with gliadin for 4 weeks. […]
Chambers for mounting either transwell cell cultures or mouse tissue biopsies were obtained from Physiologic Instruments (model P2300, San Diego, Calif., USA). […] Shortcircuit current (expressed as Isc (μA/cm2)) and resistance were acquired or calculated using the VCC600 transepithelial clamp from Physiologic Instruments and the Acquire & Analyze 2.3 software for data acquisition (Physiologic Instruments), as previously described Tosco A, et al. 2016; Romani, L. et al. 2017).
ELISA analysis was performed on tissue samples using standard ELISA kits (R&D Systems) for IL-15, IL-17A, INFγ IL21, IL10, TGF-β. […] Samples were read in triplicate at 450 nm in a Microplate Reader (BioRad, Milan, Italy) using Microplate Manager 5.2.1 software. Values were normalized to protein concentration evaluated by Bradford analysis. […]

Experiment [2] concerns TG2 / NBD1. Briefly: Cell-free system with recombinant TG2, NBD1 and synthetic peptide (native PAGE). The experiment is classed as biochemical. The settings on record: Ca2+-activated TG2. As for the experimental part:
FIG. 5: a, Immunoprecipitation of TG2 protein 15 in Caco-2 cells challenged with P57-68, PGAV or P31-43 and blotted with HRP-streptavidin. b, Immunoprecipitation of CFTR protein in Caco-2 cells challenged with P31-43 in the presence of absence of the TG2 inhibitor ZDON or TG2 RNA silencing and 20 blotted with anti-isopeptide glutamime-lysine and anti-TG2 antibodies. c, Recombinant TG2 and/or NBD1 incubated in vitro with P31-43 and solved in native page in the presence or absence of Ca2+. d, Immunoprecipitation of CFTR protein and immunblot with anti-CFTR antibodies or anti-TG2 antibodies. e, Immunoprecipitation of CFTR protein and immunoblot with anti-TG2 or anti-CFTR antibodies; effects of ZDON and BAPTA-AM. f, In situ detection of TG2 activity in Caco-2 cells pulsed with Ca2+ in the presence or absence of VX-770 or Z-DON. Activity assay by immunoblotting of the TG-catalyzed incorporation of 5-biotinamidopentylamine (BAP) and blotting with anti-biotin antibody. g, In situ TG2 activity assay, by immunostaining of the TG-catalysed incorporation of monodansylcadaverin, on Caco-2 cells pre-incubated with VX-770 or Z-DON and then pulsed with P31-43. Scale bar 50 μm. h, Immunoprecipitation of PKAr2a protein and immunoblot with isopeptide glutamime-lysine antibody in Caco-2 cells challenged with P57-68 or P31-43 in the absence or presence of VX-770. (i,j). […]

With `CC(C)(C)c1cc(C(C)(C)C)c(NC(=O)c2c[nH]c3ccccc3c2=O)cc1O` [VX-770, N-(2,4-di-tert-butyl-5-hydroxyphenyl)-4-oxo-1,4-dihydroquinoline-3-carboxamide], in experiment [1] (NOD mice challenged with gliadin after diabetes onset), the “immunoprotective effects (IL-15, IL-17A, IFN-γ protein)” value is given as “immunoprotective effects of VX-770 were confirmed”. Besides, the “effect on gliadin-induced reduction in CFTR function” value in experiment [1] (NOD mice, VX-770 i.p.) is reported as “inhibitable”.

Consider “α-gliadin peptide LGQQQPFPPQQPY (SEQ ID 1), induces an enterocyte stress response (P31-43 sequence of alpha-gliadin)”, for which the “TG2-catalyzed covalent interaction with NBD1” value in experiment [2] was “Ca2+-activated TG2 catalyzed covalent interactions between P31-43 and NBD1”.

For the origin of these results see patent US20200206198A1, “CFTR CHANNEL ACTIVATOR FOR USE IN THE TREATMENT AND/OR PREVENTION OF GLUTEN SENSITIVITY CONDITIONS” (priority 2017, published 2020).
